Laboratory results published in publication PMC5341033, “Transcriptomic insight into terpenoid and carbazole alkaloid biosynthesis, and functional characterization of two terpene synthases in curry tree (Murraya koenigii)” (Scientific Reports, 2017).

How the values were obtained:
[1] = molecular target: T1, MkTPS2 (Murraya koenigii, UniProt A0A1U9M7X9); assay: terpene synthase assay, SPME GC-MS of products; assay type: biochemical; conditions: 70 μM FPP; 1 mM MgCl2, 5 mM DTT, 30 mM HEPES pH 7.5, 30 °C 2 h; product (E,E)-α-farnesene
T1 construct: full-length ORF, 560 aa; E. coli Rosetta-2; Ni-NTA purified

[2] = molecular target: T2, MkTPS1 (Murraya koenigii, UniProt A0A1U9M7Y9); assay: terpene synthase assay, SPME GC-MS of products; assay type: biochemical; conditions: 70 μM GPP; 1 mM MgCl2, 5 mM DTT, 30 mM HEPES pH 7.5, 30 °C 2 h; product (−)-sabinene
T2 construct: plastid transit peptide truncated at Met-40; full length 602 aa; E. coli Rosetta-2; Ni-NTA purified
T2 sequence (A0A1U9M7Y9 entry or part of it): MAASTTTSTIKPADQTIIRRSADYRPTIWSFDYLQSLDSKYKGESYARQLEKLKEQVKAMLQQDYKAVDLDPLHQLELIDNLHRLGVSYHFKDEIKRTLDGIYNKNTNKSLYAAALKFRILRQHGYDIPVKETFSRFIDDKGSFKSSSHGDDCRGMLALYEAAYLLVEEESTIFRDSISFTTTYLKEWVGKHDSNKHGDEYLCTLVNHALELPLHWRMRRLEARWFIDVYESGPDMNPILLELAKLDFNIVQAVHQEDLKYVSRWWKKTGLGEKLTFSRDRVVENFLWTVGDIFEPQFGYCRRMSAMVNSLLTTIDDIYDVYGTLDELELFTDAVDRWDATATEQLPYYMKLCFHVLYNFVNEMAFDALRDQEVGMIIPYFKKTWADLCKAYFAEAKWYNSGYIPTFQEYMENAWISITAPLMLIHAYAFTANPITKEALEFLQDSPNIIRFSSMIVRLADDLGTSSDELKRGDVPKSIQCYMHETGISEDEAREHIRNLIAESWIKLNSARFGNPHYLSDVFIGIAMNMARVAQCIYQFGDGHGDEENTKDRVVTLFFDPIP

T1 sequence (A0A1U9M7X9 entry or part of it): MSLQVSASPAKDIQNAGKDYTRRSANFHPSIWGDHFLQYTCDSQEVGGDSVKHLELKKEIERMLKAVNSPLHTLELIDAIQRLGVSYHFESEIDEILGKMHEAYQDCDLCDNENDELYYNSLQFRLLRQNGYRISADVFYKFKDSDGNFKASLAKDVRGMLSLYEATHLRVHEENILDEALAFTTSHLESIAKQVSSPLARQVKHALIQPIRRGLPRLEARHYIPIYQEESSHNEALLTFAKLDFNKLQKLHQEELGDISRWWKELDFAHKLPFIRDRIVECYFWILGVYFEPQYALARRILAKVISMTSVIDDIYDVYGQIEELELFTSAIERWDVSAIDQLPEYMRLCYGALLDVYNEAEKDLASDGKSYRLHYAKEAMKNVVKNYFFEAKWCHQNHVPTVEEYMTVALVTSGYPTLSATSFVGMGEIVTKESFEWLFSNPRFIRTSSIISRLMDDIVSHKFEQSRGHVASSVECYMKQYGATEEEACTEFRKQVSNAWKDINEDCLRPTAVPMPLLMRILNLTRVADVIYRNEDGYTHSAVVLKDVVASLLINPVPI

Row | Compound | terpene synthase assay, SPME GC-MS of products [1] | terpene synthase assay, SPME GC-MS of products [2]
1 | CC(C)=CCC/C(C)=C/CC/C(C)=C/COP(=O)(O)OP(=O)(O)O [farnesyl diphosphate] | MkTPS2, the product analysis showed the formation of α-farnesene with FPP as substrate | –
2 | CC(C)=CCC/C(C)=C/COP(=O)(O)OP(=O)(O)O [geranyl diphosphate] | – | MkTPS1 showed the formation of predominantly sabinene utilizing GPP as substrate
